Results published in ChEMBL document CHEMBL1156251, “Structure--activity relationships of polymyxin antibiotics” (J Med Chem, 2010).
Converted amounts (≈) assume the structure as drawn. “And” between values parts separate entries of the source, which are not always exact repeats. Equal entries are not always repeated. Where a SMILES comes first, the peptide text is derived from it. Bridges are numbered along the chain shown (N, C = ends). [ ]: non-standard residue; d: D form. The star is where a group is joined. Heptanoyl(6-Me) = CC(C)CCCCC(=O)*; Heptanoyl = CCCCCCC(=O)*; Octanoyl = CCCCCCCC(=O)*; Dab = NCC[C@H](N)C(=O)O

Tests used:
[1] = tested on: Pseudomonas aeruginosa; assay: Antimicrobial activity against Pseudomonas aeruginosa; assay type: functional, organism-based
[2] = biological target: Lipopolysaccharide (LPS); assay: Displacement of dansyl-PMB from LPS by isothermal titration calorimetry
[3] = tested on: Salmonella enterica; assay: Antimicrobial activity against Salmonella enterica; assay type: functional
[4] = tested on: Escherichia coli; assay: Antimicrobial activity against Escherichia coli; assay type: functional

SMILES | MIC [1] [µM] | IC50 [2] | MIC [3] [µM] | MIC [4]
CCCCCCCC(=O)N[C@@H](CCN)C(=O)N[C@H]1CCNC(=O)[C@H]([C@@H](C)O)NC(=O)[C@H](CCN)NC(=O)[C@H](CCN)NC(=O)[C@H](CC(C)C)NC(=O)[C@@H](Cc2ccccc2)NC(=O)[C@H](CCN)NC1=O | 8 (≈ 7.91 µg/mL) | 14 µM | 16 (≈ 15.8 µg/mL) | 16 µM (≈ 15.8 µg/mL)
CCCCCCCC(=O)N[C@@H](CCN)C(=O)N[C@H](C(=O)N[C@@H](CCN)C(=O)N[C@H]1CCNC(=O)[C@H]([C@@H](C)O)NC(=O)[C@H](CCN)NC(=O)[C@H](CCN)NC(=O)CNC(=O)CNC(=O)[C@H](CCN)NC1=O)[C@@H](C)O (Octanoyl-[Dab]T[Dab][Dab][Dab]GG[Dab][Dab]T; lactam 4-C) | ≥ 512 | 20 µM | ≥ 512 | 256 µM (≈ 267 µg/mL)
CCCCCCCC(=O)N[C@@H](CCN)C(=O)N[C@H](C(=O)N[C@@H](CCN)C(=O)N[C@H]1CCNC(=O)[C@H]([C@@H](C)O)NC(=O)[C@H](CCN)NC(=O)[C@H](CCN)NC(=O)[C@H](CC(C)C)NC(=O)CNC(=O)[C@H](CCN)NC1=O)[C@@H](C)O (Octanoyl-[Dab]T[Dab][Dab][Dab]GL[Dab][Dab]T; lactam 4-C) | 1 (≈ 1.1 µg/mL) | 11 µM | 16 (≈ 17.6 µg/mL) | 2 µM (≈ 2.2 µg/mL)
CCCCCCCC(=O)N[C@@H](CCN)C(=O)N[C@H](C(=O)N[C@@H](CCN)C(=O)N[C@H]1CCNC(=O)[C@H]([C@@H](C)O)NC(=O)[C@H](C)NC(=O)[C@H](CCN)NC(=O)[C@H](CC(C)C)NC(=O)[C@@H](Cc2ccccc2)NC(=O)[C@H](CCN)NC1=O)[C@@H](C)O (Octanoyl-[Dab]T[Dab][Dab][Dab][dF]L[Dab]AT; lactam 4-C) | 2 (≈ 2.32 µg/mL) | 19 µM | 4 (≈ 4.64 µg/mL) | 4 µM (≈ 4.64 µg/mL)
CCCCCCCC(=O)N[C@@H](CCN)C(=O)N[C@H](C(=O)N[C@@H](CCN)C(=O)N[C@H]1CCNC(=O)[C@H](C)NC(=O)[C@H](CCN)NC(=O)[C@H](CCN)NC(=O)[C@H](CC(C)C)NC(=O)[C@@H](Cc2ccccc2)NC(=O)[C@H](CCN)NC1=O)[C@@H](C)O (Octanoyl-[Dab]T[Dab][Dab][Dab][dF]L[Dab][Dab]A; lactam 4-C) | 1 (≈ 1.16 µg/mL) | 5 µM | 1 (≈ 1.16 µg/mL) | 2 µM (≈ 2.32 µg/mL)
CCCCCCCC(=O)N[C@@H](CCN)C(=O)N[C@H](C(=O)N[C@@H](CCN)C(=O)N[C@H]1CCNC(=O)[C@H]([C@@H](C)O)NC(=O)[C@H](CCN)NC(=O)[C@H](CCN)NC(=O)[C@H](CC(C)C)NC(=O)C(Cc2c[nH]c3ccccc23)NC(=O)[C@H](CCN)NC1=O)[C@@H](C)O (stereo in doubt) | 2 (≈ 2.46 µg/mL) | 6 µM | 2 (≈ 2.46 µg/mL) | 2 µM (≈ 2.46 µg/mL)
CCCCCCCC(=O)N[C@H](C(=O)N[C@@H](CCN)C(=O)N[C@H]1CCNC(=O)[C@H]([C@@H](C)O)NC(=O)[C@H](CCN)NC(=O)[C@H](CCN)NC(=O)[C@H](CC(C)C)NC(=O)[C@@H](Cc2ccccc2)NC(=O)[C@H](CCN)NC1=O)[C@@H](C)O (stereo in doubt; 231) [Octanoyl Polymixin B nonapeptide] | 2 (≈ 2.18 µg/mL) | 12 µM | 2 (≈ 2.18 µg/mL) | 2 µM (≈ 2.18 µg/mL)
CC(=O)N[C@@H](CCN)C(=O)N[C@H](C(=O)N[C@@H](CCN)C(=O)N[C@H]1CCNC(=O)[C@H]([C@@H](C)O)NC(=O)[C@H](CCN)NC(=O)[C@H](CCN)NC(=O)[C@H](CC(C)C)NC(=O)[C@@H](Cc2ccccc2)NC(=O)[C@H](CCN)NC1=O)[C@@H](C)O [DEACYL POLYMYXIN B] (Ac-[Dab]T[Dab][Dab][Dab][dF]L[Dab][Dab]T; lactam 4-C) | 4 (≈ 4.42 µg/mL) | 13 µM | 16 (≈ 17.7 µg/mL) | 8 µM and 30 µg/mL
CC(C)C[C@@H]1NC(=O)[C@@H](Cc2ccccc2)NC(=O)[C@H](CCN)NC(=O)[C@@H](NC(=O)[C@H](CCN)NC(=O)[C@@H](NC(=O)[C@H](C)NC(=O)O)[C@@H](C)O)CCNC(=O)[C@H]([C@@H](C)O)NC(=O)[C@H](CCN)NC(=O)[C@H](CCN)NC1=O [DESFA-[ALA1]POLYMYXIN B] | 32 (≈ 34.5 µg/mL) | >= 32 nmol/ml | 64 (≈ 69 µg/mL) | 32 µM (≈ 34.5 µg/mL)
CC(C)C[C@@H]1NC(=O)[C@@H](Cc2ccccc2)NC(=O)[C@H](CCN)NC(=O)[C@@H](NC(=O)[C@H](CCN)NC(=O)[C@@H](NC(=O)[C@H](C)NC(=O)[C@@H](C)NC(=O)[C@H](C)N)[C@@H](C)O)CCNC(=O)[C@H]([C@@H](C)O)NC(=O)[C@H](CCN)NC(=O)[C@H](CCN)NC1=O [DESFA-[ALA-ALA-ALA1]POLYMYXIN B] | 128 (≈ 151 µg/mL) | >= 32 nmol/ml | 128 (≈ 151 µg/mL) | 64 µM (≈ 75.3 µg/mL)
CC(C)C[C@@H]1NC(=O)[C@@H](Cc2ccccc2)NC(=O)[C@H](CCN)NC(=O)[C@@H](NC(=O)[C@H](CCN)NC(=O)[C@@H](NC(=O)[C@H](CCCNC(=N)N)NC(=O)O)[C@@H](C)O)CCNC(=O)[C@H]([C@@H](C)O)NC(=O)[C@H](CCN)NC(=O)[C@H](CCN)NC1=O [DESFA-[ARG1]POLYMYXIN B] | 16 (≈ 18.6 µg/mL) | 15 µM | 16 (≈ 18.6 µg/mL) | 8 µM (≈ 9.31 µg/mL)
CC(C)C[C@@H]1NC(=O)[C@@H](Cc2ccccc2)NC(=O)[C@H](CCN)NC(=O)[C@@H](NC(=O)[C@H](CCN)NC(=O)[C@@H](NC(=O)[C@H](CCCNC(=N)N)NC(=O)[C@@H](CCCNC(=N)N)NC(=O)[C@@H](N)CCCNC(=N)N)[C@@H](C)O)CCNC(=O)[C@H]([C@@H](C)O)NC(=O)[C@H](CCN)NC(=O)[C@H](CCN)NC1=O [DESFA-[ARG-ARG-ARG1]POLYMYXIN B] | 1 (≈ 1.43 µg/mL) | 3 µM | 64 (≈ 91.6 µg/mL) | 16 µM (≈ 22.9 µg/mL)
CC(C)C[C@@H]1NC(=O)[C@@H](Cc2ccccc2)NC(=O)[C@H](CCN)NC(=O)[C@@H](NC(=O)[C@H](CCN)NC(=O)[C@@H](NC(=O)[C@H](CCN)NC(=O)O)[C@@H](C)O)CCNC(=O)[C@H]([C@@H](C)O)NC(=O)[C@H](CCN)NC(=O)[C@H](CCN)NC1=O [DESFA-[DAB1]POLYMYXIN B] | 4 (≈ 4.43 µg/mL) | 19 µM | 16 (≈ 17.7 µg/mL) | 8 µM (≈ 8.86 µg/mL)
CC(C)C[C@@H]1NC(=O)[C@@H](Cc2ccccc2)NC(=O)[C@H](CCN)NC(=O)[C@@H](NC(=O)[C@H](CCN)NC(=O)[C@@H](NC(=O)[C@H](CCN)NC(=O)[C@@H](CCN)NC(=O)[C@@H](N)CCN)[C@@H](C)O)CCNC(=O)[C@H]([C@@H](C)O)NC(=O)[C@H](CCN)NC(=O)[C@H](CCN)NC1=O [DESFA-[DAB-DAB-DAB1]POLYMYXIN B] | 0.5 (≈ 0.632 µg/mL) | 3 µM | 32 (≈ 40.4 µg/mL) | 8 µM (≈ 10.1 µg/mL)
CC(C)C[C@@H]1NC(=O)[C@@H](Cc2ccccc2)NC(=O)[C@H](CCN)NC(=O)[C@@H](NC(=O)[C@H](CCN)NC(=O)[C@@H](NC(=O)[C@H](CCC(=O)O)NC(=O)O)[C@@H](C)O)CCNC(=O)[C@H]([C@@H](C)O)NC(=O)[C@H](CCN)NC(=O)[C@H](CCN)NC1=O [DESFA-[GLU1]POLYMYXIN B] | 256 (≈ 291 µg/mL) | >= 32 nmol/ml | > 256 | ≥ 256 µM
CC(C)C[C@H](NC(=O)O)C(=O)N[C@H](C(=O)N[C@@H](CCN)C(=O)N[C@H]1CCNC(=O)[C@H]([C@@H](C)O)NC(=O)[C@H](CCN)NC(=O)[C@H](CCN)NC(=O)[C@H](CC(C)C)NC(=O)[C@@H](Cc2ccccc2)NC(=O)[C@H](CCN)NC1=O)[C@@H](C)O [DESFA-[LEU1]POLYMYXIN B] | 64 (≈ 71.7 µg/mL) | >= 32 nmol/ml | 32 (≈ 35.9 µg/mL) | 16 µM (≈ 17.9 µg/mL)
CC(C)C[C@@H]1NC(=O)[C@@H](Cc2ccccc2)NC(=O)[C@H](CCN)NC(=O)[C@@H](NC(=O)[C@H](CCN)NC(=O)[C@@H](NC(=O)[C@H](CCCCN)NC(=O)O)[C@@H](C)O)CCNC(=O)[C@H]([C@@H](C)O)NC(=O)[C@H](CCN)NC(=O)[C@H](CCN)NC1=O [DESFA-[LYS1]POLYMYXIN B] | 32 (≈ 36.3 µg/mL) | 22 µM | 32 (≈ 36.3 µg/mL) | 16 µM (≈ 18.2 µg/mL)
CC(C)C[C@@H]1NC(=O)[C@@H](Cc2ccccc2)NC(=O)[C@H](CCN)NC(=O)[C@@H](NC(=O)[C@H](CCN)NC(=O)[C@@H](NC(=O)[C@H](Cc2ccccc2)NC(=O)O)[C@@H](C)O)CCNC(=O)[C@H]([C@@H](C)O)NC(=O)[C@H](CCN)NC(=O)[C@H](CCN)NC1=O [DESFA-[PHE1]POLYMYXIN B] | 16 (≈ 18.5 µg/mL) | >= 32 nmol/ml | 8 (≈ 9.23 µg/mL) | 8 µM (≈ 9.23 µg/mL)
CC(C)C[C@@H]1NC(=O)[C@@H](Cc2ccccc2)NC(=O)[C@H](CCN)NC(=O)[C@@H](NC(=O)[C@H](CCN)NC(=O)[C@@H](NC(=O)[C@H](CO)NC(=O)O)[C@@H](C)O)CCNC(=O)[C@H]([C@@H](C)O)NC(=O)[C@H](CCN)NC(=O)[C@H](CCN)NC1=O [DESFA-[SER1]POLYMYXIN B] | 1 (≈ 1.09 µg/mL) | >= 32 nmol/ml | 64 (≈ 70 µg/mL) | 64 µM (≈ 70 µg/mL)
CC(C)CCCCC(=O)N[C@@H](CCN)C(=O)N[C@H](C(=O)N[C@@H](CCN)C(=O)N[C@H]1CCNC(=O)[C@H]([C@@H](C)O)NC(=O)[C@H](CCN)NC(=O)[C@H](CCN)NC(=O)[C@H](CC(C)C)NC(=O)[C@@H](Cc2ccccc2)NC(=O)[C@H](CCN)NC1=O)[C@@H](C)O [POLYMYXIN B2] ({Heptanoyl(6-Me)}-[Dab]T[Dab][Dab][Dab][dF]L[Dab][Dab]T; lactam 4-C) | 1 (≈ 1.19 µg/mL) | 9 µM | 1 (≈ 1.19 µg/mL) | 1 µM (≈ 1.19 µg/mL)
CCCCCCCC(=O)N[C@@H](CCN)C(=O)N[C@H](C(=O)N[C@@H](CCN)C(=O)N[C@H]1CCNC(=O)[C@@H]([C@@H](C)O)NC(=O)[C@H](CCN)NC(=O)[C@H](CCN)NC(=O)[C@H](CC(C)C)NC(=O)[C@@H](Cc2ccccc2)NC(=O)[C@H](CCN)NC1=O)[C@@H](C)O [POLYMYXIN B3] | 1 (≈ 1.19 µg/mL) | 8 µM | 0.5 (≈ 0.595 µg/mL) | 0.5 µM (≈ 0.595 µg/mL)
CCCCCCC(=O)N[C@@H](CCN)C(=O)N[C@H](C(=O)N[C@@H](CCN)C(=O)N[C@H]1CCNC(=O)[C@H]([C@@H](C)O)NC(=O)[C@H](CCN)NC(=O)[C@H](CCN)NC(=O)[C@H](CC(C)C)NC(=O)[C@@H](Cc2ccccc2)NC(=O)[C@H](CCN)NC1=O)[C@@H](C)O [POLYMYXIN B4] (Heptanoyl-[Dab]T[Dab][Dab][Dab][dF]L[Dab][Dab]T; lactam 4-C) | 0.5 (≈ 0.588 µg/mL) | 10 µM | 0.5 (≈ 0.588 µg/mL) | 0.5 µM (≈ 0.588 µg/mL)
